What was measured:
[1] = test system: 15-lipoxygenase; assay: 15-lipoxygenase inhibition; format: biochemical; conditions: concentrations of >10 μg/ml
[2] = test system: 15-hydroxyprostaglandin dehydrogenase; conditions: Wong and McGiff, 1982; cited from earlier work
[3] = test system: ischaemia-induced ECG changes; assay: Animal experiments: ECG changes in ischaemia; format: in vivo
[4] = test system: rabbit hearts; assay: Rabbit hearts perfused by the method of Langendorff, perfusion pressure
Protocol: The heart was removed from the rabbits (up to about 2 kg) under Nembutal anaesthesia and cannulas were attached at the aorta and at the a.pulmonalis. To measure the isovolumetric contractions, a silicon rubber balloon filled with liquid was inserted into the left ventricle via the left auricle. The balloon was connected to a liquid sensor (Statham P 23 Db) via a liquid bridge. The perfusion pressure was recorded with a pressure sensor, which was connected to the perfusion system via T-piece before the aorta cannula of the heart. The contraction force and perfusion pressure were recorded with a Gould 2600 S high-speed recorder. The hearts were stimulated electrically at a frequency of 180/minute and a stimulation duration of 5 mseconds.
Perfusion of the hearts was effected with Krebs-Henseleit solution (KH solution), which was gassed with carbogen (95% of O2, 5% of CO2) or with a gas mixture of 2% of O2, 5.6% of CO2 and the remainder N2. The perfusion volume was 20 ml/minute and was adjusted by a roller pump (Desaga, 132100). The nafazatrom and the platelet suspensions (obtained from the same rabbit from which the heart is removed) were added with the aid of infusion pumps (roller pumps, Braun-Melsungen), the solution or suspension being infused at a flow rate of 0.2 or 0.1 ml/minute from an infusion syringe via a Taigon tube and a fine cannula into the inlet tube shortly before the heart. The final concentration of the platelets was 1×10^7 /ml of KH solution. The solution flowing out of the heart (cannula in the a.pulmonalis) was collected periodically, under ice-cooling. To measure the concentrations of thromboxan as TXB2 and of prostacyclin as 6-keto-PGF1^α, determination of which was effected with the aid of radioimmunoassay, aliquot parts by volume were freeze-dried and taken up in one tenth of the original volume of water.

[5] = test system: guinea pig lung; assay: Inhibition of methacholine-induced bronchoconstriction in perfused guinea pig lung; conditions: 10^-4 g/ml; 0.05 μg/ml of methacholine
Protocol: Nafazatrom can moreover be used for the therapy of pulmonary hypertension, pulmonary embolisms and pulmonary oedemas. […] In this organ, nafazatrom inhibits (by the method of F. P. Luduena et al., Arch. Int. Pharmacodyn. 111, 392, 1957) methacholine-induced bronchoconstriction (see Example 5).
The guinea pig lung was perfused with a physiological buffer solution (Tyrode's solution) containing 0.05 μg/ml of methacholine.

[6] = test system: hydroperoxidase portion of cyclooxygenase; conditions: T. E. Eling et al., 1982; cited from earlier work
[7] = test system: prostacyclin (PGI2) from the vascular endothelium; conditions: Vermylen et al., Chamone et al., McIntyre and Salzman; cited from earlier work
[8] = test system: coronary arteries of dogs; conditions: cited from earlier work
[9] = test system: Lipoxygenase (leukotriene B4 biosynthesis in human PMN leucocytes); assay: Lipoxygenase inhibition: inhibition of leukotriene B4 biosynthesis in human PMN leucocytes; format: cell-based
Protocol: The human PMN leucocytes (95%) used in the present example were obtained from heparinized complete blood by dextran sedimentation and subsequent density gradient separation (Ficoll-Paque) (compare A. Boyum, Scand. J. Immunol., 5, Suppl. 5, 9, 1976).
2×10^7 cells/ml were suspended in Dulbecco phosphate buffer containing Ca^2+ and were incubated with radioactively labelled arachidonic acid and the calcium ionophor A 23187 in the presence or absence of lipoxygenase inhibitor. After 15 minutes, the labelled lipoxygenase products were extracted from the acidified incubation medium and were separated by thin layer chromatography using a mobile phase mixture suitable for the leukotrienes (5-HETE-LTB4) (compare B. Jakschik et al., Biochem.Biophys.Res.Commun., 102, 624, 1981).
The distribution of the activity amongst the various metabolites was measured by a thin layer scanner. It is a measure of the lipoxygenase-inhibiting action of a test substance at a certain concentration.
The lipoxygenase metabolites were also additionally determined independently by means of high pressure liquid chromatography. This method enables the endogenous arachidonic acid metabolism to be studied with the aid of UV detection of the leukotrienes. In this method, the cells were treated as described above, with the exception that no radioactively labelled arachidonic acid was added exogenously. The high pressure liquid chromatography was carried out on Lichrosorb RP-18 (5 μm) columns. The mobile phase was methanol/water/glacial acetic acid 69/31/0.01. The flow rate was 1 ml/minute. Leukotriene B4 was determined at 232 nm, in each case by means of UV absorption.

## CC1=NN(CCOc2ccc3ccccc3c2)C(=O)C1 [nafazatrom, 3-methyl-1-[2-(2-naphthyloxy)-ethyl]-2-pyrazolin-5-one]
[1]
  inhibition of 15-lipoxygenase: not inhibited or is even stimulated
[2]
  blocking of 15-hydroxyprostaglandin dehydrogenase: blocks 15-hydroxyprostaglandin dehydrogenase
[3]; in vivo
  R-wave in the ECG of the peripheral extremities: increases less sharply and re-forms more rapidly
  ST intervals compared with the controls: changed less than in the controls
[3]; indication of infarction
  ischaemia-induced rise in the ST zone: reduces the ischaemia-induced rise in the ST zone
[4]; as 2nd phase, 1.10^-5 g/ml of nafazatrom, 5 minutes
  Perfusion pressure in % of the blank value, 3rd phase: 80%
[4]; as 3rd phase (reoxygenation), 1.10^-5 g/ml
  Perfusion pressure in % of the blank value, 5th phase: 75%
[4]; as 3rd phase, 2% of O2 (hypoxia), 10 minutes, 1.10^-5 g/ml
  Perfusion pressure in % of the blank value, 4th phase: 63%
[4]; first and second carbogen phase
  rise in perfusion pressure caused by addition of platelets: significantly inhibits
[4]; normoxia, carbogen, 1.10^7 platelets/ml, 5 minutes, before addition of nafazatrom
  Perfusion pressure in % of the blank value, 2nd phase: 139%
[4]; preliminary phase, carbogen, before addition of nafazatrom
  Perfusion pressure in % of the blank value, 1st phase: 100%
[5]
  inhibition of the rise in perfusion pressure, and hence bronchoconstriction: 50%
[6]
  action on hydroperoxidase portion of cyclooxygenase; conversion of arachidonic acid into PGH2: acts as a reducing cofactor of the hydroperoxidase portion of cyclooxygenase and accelerates the conversion of arachidonic acid into PGH2
[7]
  stimulation of endogenous prostacyclin (PGI2): stimulator of endogenous prostacyclin (PGI2)
[8]
  antithrombotic effectiveness: also effective in the coronary arteries of dogs
[9]; Homo sapiens, Leucocyte, 1 ug/ml, read-out: Inhibition in % in comparison with the control (leukotriene B4 biosynthesis)
  inhibition at 1 µg/mL: 30%
[9]; Homo sapiens, Leucocyte, 3 ug/ml, read-out: Inhibition in % in comparison with the control (leukotriene B4 biosynthesis)
  inhibition at 3 µg/mL: 75%
[9]; Homo sapiens, Leucocyte, 5 ug/ml, read-out: Inhibition in % in comparison with the control (leukotriene B4 biosynthesis)
  inhibition at 5 µg/mL: 90%
[9]; Homo sapiens, Leucocyte, 10 ug/ml, read-out: Inhibition in % in comparison with the control (leukotriene B4 biosynthesis)
  inhibition at 10 µg/mL: 100%
[9]; as a function of the concentration
  concentration range of inhibition of LTB4 biosynthesis: 1 to 10 µg/mL

From US4657924A, “Nafazatrom as a lipoxygenase inhibitor” (priority 1983, dated 1987)
